In patent publication US8895526B2, “Identification of RNAI targets and use of RNAI for rational therapy of chemotherapy-resistant leukemia and other cancers” (Cold Spring Harbor Laboratory, priority 2009, dated 2014):

Experiments:
[1] = tested on: Kasumi1
[2] = tested on: MLL-AF9/Nras leukemia cells; settings: different concentrations
[3] = tested on: HL60
[4] = tested on: non-transformed 32D cell line; settings: different concentrations
[5] = tested on: Molm13
[6] = tested on: HCT116 cells; experiment: siRNA cytotoxicity: reduction in HCT116 culture confluency after transfection; format: cell-based, human; settings: relative to negative control RNAi cultures
Protocol: siRNAs derived from the shRNAs of Example 2 were all highly cytotoxic to HCT116 cells. The siRNA sequences and shRNAs from which they were derived are shown below
Cytotoxicity was determined by the reduction in culture confluency over time after transfection of the siRNA relative to negative control RNAi cultures.

[7] = Tolerability of anthracycline in mice; format: in vivo; settings: applied intraperitoneally
Protocol: To study factors that influence the outcome of conventional AML therapy in mice, we established a simple chemotherapy regimen involving intraperitoneal injection of cytarabine (100 mg/kg over 5 days) and doxorubicin (3 mg/kg over 3 days; FIG. 36A), which mimics the standard induction therapy used to treat AML in human patients. […] Efficacy and safety of this regimen were initially evaluated in a previously described model based on co-transduction of MLL/ENL and FLT3-ITD (Ono et al. 2005). In order to rapidly generate homogenous treatment cohorts we harvested bone marrow and spleen from terminally ill primary FLC recipient mice and transplanted 1 million leukemia cells into 20-30 secondary recipients. In initial studies, we noted that this combination therapy was not tolerated in mice when treatment was initiated based on a high leukemia burden in the peripheral blood; although the peripheral disease disappeared within two days, animals died shortly thereafter with peripheral leukopenia.

[8] = tested on: Hepa1.6 cells; experiment: In vitro competition assay in Hepa1.6 cells; format: cell-based, mouse; settings: five passages 1:8
From the text: Two days after transduction with a GFP-tagged vector, the number of fluorescent cells was quantified. Cells were passaged 1:8 five times, and the number of GFPpositive transduced cells was quantified at each passage.

[9] = tested on: HCT116 cells; experiment: HCT116 proliferation assay: cell counts of shRNA-transduced cultures; format: cell-based, human; settings: 5 days post-infection; normalized to EBNA1mi1666 and Lucifmi203 cultures
Protocol: HCT116 cultures in 24-well plates were infected separately with amphotropic retrovirus encoding 254 different shRNAs targeting 83 cell cycle and/or E2F regulated genes. On day 1 following infection each culture was suspended in media containing 1.5 μg/mL puromycin to select for cells transduced with the hairpins, then seeded to 6-well plates. On day 5 following infection, cells in each culture were suspended in media and counted using a hemacytometer. Results for each culture were normalized to the average of the number of cells counted in cultures transduced with hairpins targeting either of two different genes not endogenous to HCT116 cells (EBNA1 and Ff-luciferase).
About 24 hours prior to infection, 150,000 HCT116 cells were seeded per well of a 24-well plate in 0.4 mL DMEM+10% FBS. At the time of the first round of infection, culture media was aspirated from each HCT116 culture and 0.5 mL media containing virus, obtained from ˜36-hour post-transfection packaging cell culture as described above, was added to each HCT116 culture. Each HCT116 culture was infected with virus encoding a particular shRNA. […]
About 24 hours after the second round of infection of the HCT116 cultures, cells from each culture were suspended and seeded to 6-well plates in 2 mL DMEM+10% FBS+1.5 μg/mL puromycin per well. […] Following two more days of growth (day 5 post-infection), cells in each culture were suspended in complete DMEM and cell numbers per culture were counted using a hemacytometer. […]
In each experiment, HCT116 cells were also transduced with hairpins against EBNA1 (EBNA1mi1666) and Ff-luciferase (lucifmi203). […] Similar to cultures transduced with other shRNAs, on day 5 post-infection, HCT116 cells in cultures transduced with either EBNA1mi1666 or Lucifmi203 were suspended and counted using a hemacytometer. […]
The average cell number in HCT116 cultures transduced with EBNA1mi1666 and Lucifmi203 was calculated for each experiment and cell numbers in cultures transduced with the other shRNAs in the given experiment were normalized to this value. […]

[10] = tested on: mouse liver carcinoma cells; experiment: Subcutaneous liver carcinoma tumor growth after doxycycline induction of shRNA; format: in vivo, nude mice; settings: doxycycline 2 mg/ml in drinking water from two weeks after injection
Protocol: One million mouse liver carcinoma cells transduced with an inducible shRpa3.457 were injected subcutaneously in nude mice. Two weeks after injection, mice were either treated with doxycycline 2 mg/ml in their drinking water, or left untreated. Change in tumor volumes was measured following treatment.

[11] = tested on: Mouse hepatocellular carcinoma cells (Hepa1.6); experiment: Hepa1.6 colony formation assay; format: cell-based; settings: high MOI, low density plating, crystal violet
Protocol: (FIG. 8A) Mouse hepatocellular carcinoma cells (Hepa1.6) were transduced at high MOI with shRNAs targeting replication genes. Cells were plated at low density, stained with crystal violet, and staining was quantified on a Licor scanner. Values are normalized to empty vector control. (FIG. 8B) Representative scans of colony formation assays of cells infected with an antiproliferative shRNA (top—shRpa3.457) or empty vector control (bottom).
An assay similar to that described in Example 1 was used to test the effect of RNAi molecules against genes encoding DNA replication proteins in mouse cancer cells (Hepa1.6). Similar results in mouse cells were observed as compared to human cells (FIG. 8 and FIG. 9). For example, mouse tumors regress upon induction of RNAi against Rpa3 (FIG. 17).

N[C@@H]1C[C@H]1c1ccccc1 (racemic) [tranylcypromine]
growth [1]: an effect on growth
proliferation [2]: dose-dependent inhibition
growth [3]: an effect on growth
growth [4]: no impact
growth [5]: an effect on growth

RPA3si1417: siRNA CAUCUUAUGUCCAGUUUAA (SEQ ID NO: 1), derived from v2HS_32101 (listed as RNA, chemistry not fully specified)
cytotoxicity (reduction in culture confluency over time) [6]: more cytotoxic than RPA3si1403

COc1cccc2c1C(=O)c1c(O)c3c(c(O)c1C2=O)C[C@@](O)(C(C)=O)C[C@@H]3O[C@H]1C[C@H](N)[C@H](O)[C@H](C)O1 [daunorubicin]
toxicity [7]: high toxicity

B1: shPCNA.538: shRNA, SEQ ID NO: 56 (nucleic acid)
chain: TGCTGTTGACAGTGAGCGCGGAGTACAGCTGTGTAATAAATAGTGAAGCCACAGATGTATTTATTACACAGCTGTACTCCTTGCCTACTGCCTCGGA
competition with uninfected GFP-negative cells [8]: outcompeted by uninfected, GFP-negative cells

B2: Orc2mil981: shRNA targeting ORC2, SEQ ID NO: 19 (nucleic acid)
chain: TGCTGTTGACAGTGAGCGAGAGGCTTGAAGCTTTCCTTTATAGTGAAGCCACAGATGTATAAAGGAAAGCTTCAAGCCTCCTGCCTACTGCCTCGGA
Cell # in culture/average cell number in negative control cultures [9]: 0.8496

B3: shRpa3.457: shRNA, SEQ ID NO: 60 (nucleic acid)
chain: TGCTGTTGACAGTGAGCGCGCGACTCCTATAATTTCTAATTAGTGAAGCCACAGATGTAATTAGAAATTATAGGAGTCGCTTGCCTACTGCCTCGGA
change in tumor volumes [10]: stopped growing or regressed
effect on colony formation [11]: antiproliferative
competition with uninfected GFP-negative cells [8]: outcompeted by uninfected, GFP-negative cells

B4: Orc2mil903: shRNA targeting ORC2, SEQ ID NO: 18 (nucleic acid)
chain: TGCTGTTGACAGTGAGCGAGGAACTGATGGAGTAGAGTATTAGTGAAGCCACAGATGTAATACTCTACTCCATCAGTTCCCTGCCTACTGCCTCGGA
Cell # in culture/average cell number in negative control cultures [9]: 0.7115

B5: mi550: shRNA targeting ORC1, SEQ ID NO: 17 (nucleic acid)
chain: TGCTGTTGACAGTGAGCGCGGAAATATTCTGGTATGATTATAGTGAAGCCACAGATGTATAATCATACCAGAATATTTCCTTGCCTACTGCCTCGGA
Cell # in culture/average cell number in negative control cultures [9]: 0.8719
